Reference: patent US8741905B2, “Compounds and methods for treating autoimmune diseases” (The Broad Institute, Inc., priority 2010, dated 2014)
Where two headings read alike, the source gives them in different places.

Assays:
[1] = test system: STAT1; experiment: STAT1 phosphorylation; type: cell-based; conditions: FIG. 8
Protocol: siRNAs (100 nM) were transfected into INS-1E cells (5,000 cells/well in a 384-well plate) using DharmaFECT reagent. Transfected cells were cultured for 72 hr, then collected for Western blot analysis and cell-based assays. For Western blotting, cells were lysed in RIPA buffer. Total protein was separated by 4-12% SDS-PAGE and transferred to a PVDF membrane. Blots were developed using the chemiluminescence detection system SuperSignal (Thermo Fisher Scientific) and light emission was captured using an Imaging Station 4000MM (Carestream).

[2] = test system: STAT1; experiment: GAS reporter assay (cytokine-induced STAT1 reporter gene activity); type: cell-based; conditions: FIG. 7
Protocol: INS-1E cells were transfected with plasmids (GAS reporter assay kit) using DharmaFECT reagent according to the manufacturer's protocol (SABiosciences) in white optical 384-well plates (Corning Life Sciences). After overnight incubation, medium was removed and 50 μL RPMI containing the treated compound, 1% FBS and a combination of cytokines (10 ng/mL IL-1β, 50 ng/mL IFN-γ, 25 ng/mL TNF-α) was added to every well. After treatment with cytokines and compounds for 18 hr, luminescence was measure using Dual-Glo according to the manufacturer's protocol (Promega).

[3] = test system: INS-1E cells; experiment: Cellular ATP levels (CellTiter-Glo) in cytokine-treated INS-1E cells; suppression of cytokine-induced beta-cell apoptosis; type: cell-based, rat; conditions: Rattus norvegicus
Protocol: The compounds were analyzed for activity utilizing methods described in Chou et al. (ACS Chem. Biol. 2010 Aug. 20; 5(8):729-34).
INS-1E cells were seeded at 10,000 cells per well using a Multidrop Combi (Thermo Labsystems) in white optical 384-well plates (Corning Life Sciences). After overnight incubation, medium was removed and 50 μL of RPMI containing 1% FBS and a combination of cytokines (10 ng mL-^1 IL-1β, 50 ng mL^−1 IFN-γ, 25 ngmL^−1 TNF-α) was added to every well. Using libraries of compounds dissolved in DMSO and a CyBi-Well pin-transfer robot (CyBio Corp.), 0.1 μL of each compound was added. After 48 h, medium was removed and 20 μL of CellTiter-Glo reagent was added. Luminescence was measured after 10 min of incubation using an EnVision plate reader (PerkinElmer).
Instrument output files were processed using Pipeline Pilot (Accelrys) and input to MATLAB (The MathWorks) for data normalization. Compound performance scores relative to a distribution of mock-treated (DMSO) wells were calculated using a revised version of the scoring system underlying ChemBank. (Seiler et al., Nucleic Acids Res. 36, D351-359, 2008). The role of replicate treatments was further developed as follows: first, mock-treatment distributions were modeled using all mock-treated wells measured on a single day, regardless of their nominal replicate; second, per-compound scores weighted each in-plate background-subtracted measurement by the uncertainty in that measurement, using the method of maximum likelihood. The uncertainty in a single background-subtracted measurement was estimated using the number of mock-treated wells on the plate and, as a measure of the assay noise, the standard deviation of the per-day mock-treatment distribution. The signal, a weighted average of differences, was scaled by the noise, the standard deviation of the mock treatment distribution.
INS-1E cells were seeded at 10,000 cells/well using a Multidrop Combi (Thermo Labsystems) in white optical 384-well plates (Corning Life Sciences). After overnight incubation, medium was removed and 50 μL RPMI containing the treated compound, 1% FBS and a combination of cytokines (10 ng/mL IL-1β, 50 ng/mL IFN-γ, 25 ng/mL TNF-α) was added to every well. After incubation for 48 hr, medium was removed and 20 μL CellTiter-Glo reagent was added. Luminescence was measured after 10-min incubation using an EnVision plate reader (PerkinElmer).

[4] = test system: STAT1; experiment: Nuclear STAT1 translocation; type: cell-based; conditions: FIG. 9
[5] = test system: dissociated human islets; experiment: Cytokine-induced caspase-3/7 activity in dissociated human islets; type: cell-based; conditions: six-day cytokine treatment, co-incubation
From the text: Without being bound by any theory the following postulated to relate the activity of the compounds of Formula I in autoimmune diseases. Human beta-cell apoptosis involves a complex set of signaling cascades initiated by IL-1β, IFN-γ, and TNF-α. IL-1β and TNF-α induce NF-κB expression, while downstream activation of gene expression is thought to occur through nitric oxide (NO) signaling, which both increases the endoplasmic reticulum stress-response pathway and decreases beta-cell function; this pathway works together with IFN-γ-induced STAT-1 signaling to effect beta-cell death. These effects of cytokines are beta cell-specific, and small-molecule suppressors should have little to no effect on other cell types in the pancreas. Small molecules that increase beta-cell survival in the presence of cytokines could be of potential clinical benefit to early-stage type 1 diabetic patients. A number of studies have described small molecules with protective effects in the presence of cytokines; most of these were discovered because of their nonspecific antioxidant or anti-inflammatory effects. […] Because of the use of dissociated islets and a whole-well readout of caspase activity, it cannot be certain that only beta cells are undergoing apoptosis; however, based on previous results in the literature, beta cells may constitute the majority of the apoptotic effect.

[6] = test system: INS-1E cells; experiment: Glucose-stimulated insulin secretion in cytokine-treated INS-1E cells; type: cell-based, rat; conditions: cytokines
Protocol: INS-1E cells were seeded in 96-well plates at 20,000 cells per well and incubated for 48 h in 100 μL of fresh RPMI containing 1% FBS and the cytokine cocktail, in the presence or absence of compounds. Cells were washed and incubated for 2 h in KRBH (135 mM NaCl, 3.6 mM KCl, 5 mM NaHCO3, 0.5 mM NaH2PO4, 0.5 mM MgCl2, 1.5 mM CaCl2, 10 mM HEPES, pH 7.4, 0.1% BSA) without glucose. Cells were subsequently incubated with KRBH containing 2 or 15 mM glucose for 1 h. The supernatant was taken for measurement of released insulin, and 100 μL of acidified ethanol was added to each well for extraction and measurement of cellular insulin content. Insulin was measured with a rat insulin ELISA kit (Alpco).

Question: Which results are given for `C[C@@H]1CN([C@@H](C)CO)C(=O)c2cccc(NC(=O)Nc3cccc4ccccc34)c2O[C@H]1CN(C)S(=O)(=O)c1ccc2c(c1)OCCO2` [Compound 21A, N-(((2R,3R)-5-((S)-1-Hydroxypropan-2-yl)-3-methyl-10-(3-(naphthalen-1-yl)ureido)-6-oxo-3,4,5,6-tetrahydro-2H-benzo[b][1,5]oxazocin-2-yl)methyl)-N-methyl-2,3-dihydrobenzo-[b][1,4]dioxine-6-sulfonamide]?
Answer: STAT1 phosphorylation [1]: Suppression of STAT1 phosphorylation; cytokine-induced STAT1 reporter gene activity [2]: inhibits cytokine-induced STAT1 reporter gene activity; EC50 ([3]; INS-1E, assay not named, read-out: EC50): 770 nM; IC50 ([3]; INS-1E, read-out: IC50, inhibition of cytokine-induced beta cell apoptosis): 770 nM; EC50 ([3]; INS-1E cells, cytokines IL-1β, IFN-γ, TNF-α, 48 h, CellTiter-Glo, read-out: CTG EC50 in HTS): > 100 nM; nuclear STAT1 translocation [4]: Inhibition of nuclear STAT1 translocation; cytokine-induced caspase-3/7 activity (induced by approximately 60%) [5]: abolished; glucose-stimulated insulin secretion (GSIS) [6]: restored glucose-stimulated insulin secretion (GSIS), showing improved beta-cell function, to nearly normal levels
